What was measured:
[1] = tested on: RKO, HCT116, DLD1, Caco2, HT55 and SW1417 cells; experiment: Western blot of cell cycle and apoptosis markers in colorectal cancer cells; assay type: cell-based, human; conditions: 1 μM LTX, 24 hours; MLL4 mutant vs WT cells
Method: FIG. 5. MLL4 mutant colorectal cancer cells are selectively sensitive to lometrexol treatment. (A) 100 μL of 0.5×10^5 cells/mL cells were seeded in 96-well plates one day before treatment. Cells were treated with 0-30 μM lometrexol (LTX) with 3× fold dilution for 72 hours. CellTiter-Glo® luminescent cell viability assay was performed to determine the percentage of inhibition under these conditions. The line plot compares sensitivity difference of all cell lines tested. (B) RKO, HCT116, DLD1, Caco2, HT55 and SW1417 cells were treated with DMSO or 1 μM LTX for 24 hours and whole cell lysates were used for western blot against cell cycle (H3 Ser10-p, CDT1, CyclinB 1, Geminin, CyclinEl, CyclinA2, p-cdc2) and apoptosis (PARP, Caspase3) markers using Hsp90 and I3-tubulin as loading control. […] (F) A subset of representative terms from the full cluster were selected and converted into a network layout. Each term is represented by a circle node, where its size is proportional to the number of input genes fall under that term, and its color represent its cluster identity. Terms with a similarity score>0.3 are linked by an edge (the thickness of the edge represents the similarity score). The network is visualized with Cytoscape with “force-directed” layout and with edge bundled for clarity. One term from each cluster is selected to have its term description shown as label. […]

Mll3/4 KO mESCs = experiment: CellTiter-Glo luminescent cell viability assay in WT and Mll3/4 KO mESCs; assay type: cell-based, mouse; conditions: 48 hours
Method: FIG. 3. […] (A) WT and Mll3/4 KO cells were treated with 0-2.5 μM lometrexol (LTX)−/+50 hypoxanthine (HPX) for 48 hours. CellTiter-Glo® luminescent cell viability assay was performed to determine the percentage of inhibition under these conditions. (B) WT and KO cells were treated with 0.3 μM LTX−/+50 μM HPX for 48 hours, and cells were harvested for RNA-seq. Differential gene expression analyses were performed with indicated comparisons. (C) Principal component analysis of RNA-seq in (B). (D) Hierarchical clustering heatmap showing differentially expressed genes in KO cells in comparison with WT cells.
FIG. 10. Mll3/4 KO mESCs are more sensitive to purine synthesis inhibition. (A-B) WT and Mll3/4 KO cells were treated with 0-2.5 μM lometrexol (LTX) (A) or 0-5 methotrexate (MTX) (B) for 48 hours. CellTiter-Glo® luminescent cell viability assay was performed to determine the percentage of inhibition under these conditions with three different Mll3/4 KO clones included. (C) WT and Mll3/4 KO cells were treated with 0-40 μM SHIINI for 48 hours. MTT cell viability assay was performed to determine the percentage of inhibition under these conditions with three different Mll3/4 KO clones included.

MLL3/4 ΔSET cells = experiment: CellTiter-Glo viability assay in WT, MLL3/4 ΔSET and MLL3/4 KO cells; assay type: cell-based, mouse; conditions: 0-2.5 μM LTX, 72 hours
Text: FIG. 11. […] (A) Western blot showing MLL4, MLL3, NCOA6, UTX, RbBP5 and ASH2L protein levels in WT, MLL3/4 ASET and MLL3/4 KO cells with Hsp90 as the loading control. Bulk levels of histone H3K4me1, H3K4me2, H3K4me3 and H3K27Ac were also shown. N, N-terminus; C, C-terminus. mESCs harboring deletion of the SET domains of both MLL3 and MLL4 (referred to as MLL3/4 ΔSET) were generated in our previous studies (20). (B) Western blot showing nuclear and cytoplasmic MLL4, UTX, NCOA6 and RBBP5 protein levels after cell fractionation, with MLL1 and Hsp90 serving as nuclear and cytoplasmic loading control. (C) WT, MLL3/4 ΔSET and MLL3/4 KO cells were treated with 0-2.5 μM lometrexol (LTX) for 72 hours. CellTiter-Glo® luminescent cell viability assay was performed to determine the percentage of inhibition.

Structure (SMILES): Nc1nc2c(c(=O)[nH]1)C[C@@H](CCc1ccc(C(=O)N[C@@H](CCC(=O)O)C(=O)O)cc1)CN2 [lometrexol, (2S)-2-[[4-[2-[(6R)-2-amino-4-oxo-5,6,7,8-tetrahydro-3H-pyrido[2,3-d]pyrimidin-6-yl]ethyl]benzoyl]amino]pentanedioic acid]
- cell cycle markers H3 Ser10-p, CDT1, CyclinB1 (western blot) [1]: significant downregulation of histone H3 Serine10 phosphorylation (H3 Ser10-p), CDT1 and CyclinB1 was observed only in MLL4 mutant cells but not WT cells
- sensitivity of Mll3/4 KO cells compared with WT cells (percentage of inhibition of viability) (Mll3/4 KO mESCs; LTX 0-2.5 μM, MTX 0-5, three Mll3/4 KO clones): elevated sensitivity to LTX in Mll3/4 KO cells
- rescue of cell growth and/or viability inhibition by hypoxanthine (Mll3/4 KO mESCs; LTX 0-2.5 μM + 50 hypoxanthine (HPX)): completely rescued by HPX
- sensitivity of MLL3/4 ΔSET cells compared with WT mESCs (percentage of inhibition) (MLL3/4 ΔSET cells): indistinguishable sensitivity to LTX in comparison to WT mESCs
